# Source: patent US5304367A, “In vivo brain imaging agent and method for diagnosis of psychiatric disorders” (New York University, priority 1990, dated 1994)
# “And” between values parts separate entries of the source, which are not always exact repeats. Identical values can stand only once. Like-named read-outs stand apart in the source and are kept apart here.
# What was measured:
# [1] = test system: β-adrenergic receptor; test: [^3 H]DHA saturation binding in prefrontal cortical homogenates from suicides and controls (Scatchard analysis); design: species or system human
# Description: (§1) Following the characterization and localization of a group effect (such as, for example, age, sex or suicide) by autoradiography, samples from at least one involved region are dissected from the relevant blocks and homogenized for saturation binding studies using well known techniques.
# Fourteen suicide and 14 pair-matched control brains were collected over 3 years from the medical examiner's offices in New York City and Jaffa, ISRAEL. […] The results of the coroner's examination as well as the results of broad-spectrum toxicological tests performed by the forensic laboratory were made available within 8 weeks. Only drug-free and pathology-free brains were included. For each suicide brain, a control matched for sex and age group with a PMD under 48 hours was collected the same day or within a few days, so that the pairs are also matched for storage time. The brains from each pair were dissected or sectioned on the same day and receptors were labeled in the same experiment, by an experimenter blind to the identity of the samples.
# (§2) The brains were removed at autopsy and the right hemisphere sliced in the coronal plane. The slices, about 2 cm thick, were examined for signs of pathology and frozen in powdered dry ice, then removed for long-term storage at -80° C. Grey matter from the most frontal slice (prefrontal cortex) was dissected with a scalpel and homogenized. Crude membrane preparations were made from the homogenates, divided and stored frozen for saturation binding assays. The other slices were used for autoradiography. Eight concentrations of [^3 H]DHA (New England Nuclear, specific activity: 72 Ci/mmol), ranging from 0.1 to 4 nM were incubated with samples of the membrane preparations, with parallel incubates containing 10^-6 M propranolol to establish non-specific binding (Biegon et al., Life Sci. 32:2015-2022 ;(1983)); Enna et al., J. Neurochem. 28:233-236 (1983)). β-Receptor subtypes were distinguished by coincubation of the radioligand 10^-6 M concentrations of either zinterol, a […] blocker, or […] blocker, in 5 out of the 10 pairs included in this part of the study (Ecker et al., Int. Catecholamine Symp. Abstr. 6:52 (1987)). The affinity (Kd and maximal density (Bmax) of the receptors were derived from Scatchard analysis (Scatchard G., Ann. N.Y. Acad. Sci. 51:660-672 (1949)) of the binding data and protein was assayed by the method of Lowry et al.(Lowry et al., J. Biol. Chem. 193:265-275 (1951)).
# The binding characteristics of βARs were studied in prefrontal cortical homogenates from 10 pairs. The region corresponds to Brodmann's areas 9 and 10.
# [2] = biological target: T1, β1-receptors (Homo sapiens, UniProt P08588); test: [^3 H]DHA saturation binding in prefrontal cortical homogenates, β1-receptors
# T1 construct: Crude membrane preparations were made from the homogenates; from tissue; host or cells: human post-mortem prefrontal cortex (grey matter), crude membranes
# T1 sequence (P08588 whole entry): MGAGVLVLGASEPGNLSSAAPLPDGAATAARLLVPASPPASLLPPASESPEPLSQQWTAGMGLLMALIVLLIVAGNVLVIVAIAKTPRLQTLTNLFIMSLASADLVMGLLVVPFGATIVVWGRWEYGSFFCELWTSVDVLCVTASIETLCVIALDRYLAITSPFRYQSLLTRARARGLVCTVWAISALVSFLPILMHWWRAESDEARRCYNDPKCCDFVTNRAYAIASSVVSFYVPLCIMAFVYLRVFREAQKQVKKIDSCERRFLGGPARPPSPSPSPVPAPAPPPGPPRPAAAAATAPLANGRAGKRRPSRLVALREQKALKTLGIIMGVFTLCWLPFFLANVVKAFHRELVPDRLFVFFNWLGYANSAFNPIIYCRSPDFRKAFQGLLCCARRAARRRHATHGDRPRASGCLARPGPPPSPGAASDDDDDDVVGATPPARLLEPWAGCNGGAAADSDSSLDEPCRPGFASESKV
# Description: as §1, §2
# [3] = biological target: T2, β2-receptors (Homo sapiens, UniProt P07550); test: [^3 H]DHA saturation binding in prefrontal cortical homogenates, β2-receptors
# T2 construct: Crude membrane preparations were made from the homogenates; from tissue; host or cells: human post-mortem prefrontal cortex (grey matter), crude membranes
# T2 sequence (P07550 whole entry, looked up): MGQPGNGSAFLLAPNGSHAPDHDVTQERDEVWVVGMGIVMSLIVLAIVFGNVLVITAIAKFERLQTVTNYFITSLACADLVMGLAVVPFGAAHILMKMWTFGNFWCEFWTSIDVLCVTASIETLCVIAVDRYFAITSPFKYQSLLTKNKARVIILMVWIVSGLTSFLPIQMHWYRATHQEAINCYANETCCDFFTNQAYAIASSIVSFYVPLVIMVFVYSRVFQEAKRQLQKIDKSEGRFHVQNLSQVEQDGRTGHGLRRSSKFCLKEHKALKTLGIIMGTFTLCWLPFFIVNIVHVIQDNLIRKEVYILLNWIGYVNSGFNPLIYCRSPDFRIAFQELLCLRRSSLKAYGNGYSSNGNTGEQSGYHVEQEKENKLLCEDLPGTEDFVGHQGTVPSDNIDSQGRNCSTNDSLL
# Description: as §1, §2
# [4] = test system: βAR; test: ^3 H-DHA saturation binding on homogenates of frontal superior gyrus, total; design: species or system human; details: 3 brains
# [5] = test system: β1 receptor subtype; test: ^3 H-DHA saturation binding on homogenates of frontal superior gyrus, β1; design: species or system human; details: 3 brains, 0.1 μM zinterol or metoprolol for subtype differentiation
# Method: as §1
# (§3) Based on 3 brains, a total Bmax of 50-100 fm/mg protein was calculated, with the β1 receptor subtype accounting for the majority of the sites (Bmax: 40-60 fm/mg protein) and a smaller β2 receptor fraction (Bmax: 25-40 fm/mg protein). The Bmax values for the two subtypes added up to total specific binding in each individual brain, confirming the use of the two blocker concentrations for receptor subtype differentiation.
# [6] = test system: β2 receptor; test: ^3 H-DHA saturation binding on homogenates of frontal superior gyrus, β2; design: species or system human; details: 3 brains, 0.1 μM zinterol or metoprolol for subtype differentiation
# Method: as §1, §3
# [7] = test system: β1 receptors; test: autoradiographic mapping of β1 receptors (iodopindolol in the presence of zinterol); type: binding, human; details: FIG. 3
# Method: (§4) Slides holding tissue sections are incubated for about 70 min at approximately 25° C. with 0.15 nM ^125 I-iodopindolol (New England Nuclear, 2200 Ci/mmole) in 25 mM Tris buffer, pH 7.5, containing 150 mM NaCl. Nonspecific binding is determined in the presence of 1 μM propranolol (see Examples, below). Zinterol, a selective β2 blocker, or metoprolol, a selective β1 antagonist, are added to the incubation buffer at 0.1 μM to achieve selective labeling of the β1 and β2 receptor subtypes, respectively. The incubation is followed by three 20 min washes in the same ice cold buffer. Slides are then dipped in ice cold distilled water to remove buffer salts, dried on a 50° C. slide warmer and apposed to ^3 H-sensitive film (Amersham ^3 H-hyperfilm) for 48-96 hours. The film is coexposed to commercial iodine standards (available from Amersham, for example). Film is developed manually using standard developer and fixer such as those available from the Eastman-Kodak Company. […]
# (§5) Based on 3 brains, a total Bmax of 50-100 fm/mg protein was calculated, with the β1 receptor subtype accounting for the majority of the sites (Bmax: 40-60 fm/mg protein) and a smaller β2 receptor fraction (Bmax: 25-40 fm/mg protein). […]
# [8] = test system: β2 receptors; test: autoradiographic mapping of β2 receptors (iodopindolol in the presence of metoprolol); type: binding, human; details: FIG. 4
# Method: as §4, §5
# [9] = test system: βAR; test: in vivo autoradiography of brain distribution and kinetics; design: species or system rat
# Method: In vivo autoradiography was been used to study brain distribution and kinetics of iodopindolol. Groups of rats (3 per treatment/time) were injected intravenously (i.v.) in the tail vein with 250 μCi/kg ^125 I-iodopindolol, either alone or 5 min after an intraperitoneal injection of the βAR antagonist (beta blocker) propranolol (5 mg/kg), to define nonspecific binding. Animals were sacrificed by decapitation 15, 30, 60 and 90 minutes post- injection and the brains quickly removed. The right hemisphere and a blood sample were used for direct counting while the left hemisphere was frozen immediately on dry ice and then sectioned sagittally. Sections were apposed to hyperfilm for one week.
# [10] = whole body distribution, mice, 2 μCi; type: in vivo, mouse; details: conclusion from whole body distribution studies
# Method: In a subsequent study, whole body distribution was examined in mice following tail vein injection of 2 μCi ^125 I-iodopindolol. Animals were sacrificed at various time points up to 22 hours post-injection. Percent injected dose (%ID) was determined in 11 organs, blood and urine. At one minute, lungs contained the highest %ID (17%), heart 3-4 %ID and brain 0.3%ID.
# [11] = biological target: beta adrenergic receptors (βAR); details: βAR antagonist; Barovsky et al.; read-out: affinity; cited from earlier work
# [12] = test system: serotonin receptors of the 5HT1B subtype; details: unlike most other βAR antagonists; cited from earlier work
# [13] = test system: serotonin receptors of the 5HT1D subtype; details: unlike most other βAR antagonists; cited from earlier work
# [14] = test system: β1; details: experimental animals; cited from earlier work
# [15] = test system: β2; details: experimental animals; cited from earlier work
# [16] = experimental animals; cited from earlier work
structure (smiles),measurement,setting,value
"CCCc1ccccc1OCC(O)CNC(C)C (stereo not drawn) [[^3 H]DHA, dihydroalprenolol]",Bmax,"[1]; control, individual of matched pair, prefrontal cortex",65 fm/mg P and 92 fm/mg P and 44 fm/mg P and 31 fm/mg P and 86 fm/mg P and 55 fm/mg P and 78 fm/mg P and 36 fm/mg P and 32 fm/mg P and 53 fm/mg P
same,Kd,"[1]; control, individual of matched pair, prefrontal cortex, read-out: Kd",0.84 nM and 0.8 nM and 0.3 nM and 0.4 nM and 0.6 nM and 1.25 nM and 1.5 nM
same,"Bmax, mean","[1]; control, mean of 10, SEM 7.9",57.7 fm/mg P
same,change in receptor affinity (Kd),[1]; suicide vs control,no significant change in receptor affinity
same,Increases in binding (range),"[1]; suicide vs control, 9 of the 10 pairs",30% to 115%
same,Increases in binding (mean),"[1]; suicide vs control, P<0.0003",48%
same,Bmax,"[1]; suicide, individual of matched pair, prefrontal cortex",108 fm/mg P and 81 fm/mg P and 85 fm/mg P and 67 fm/mg P and 119 fm/mg P and 97 fm/mg P and 106 fm/mg P and 58 fm/mg P and 53 fm/mg P and 83 fm/mg P
same,Kd,"[1]; suicide, individual of matched pair, prefrontal cortex, read-out: Kd",0.98 nM and 0.9 nM and 1.5 nM and 1.2 nM and 1.4 nM and 1.1 nM and 1 nM and 0.4 nM and 0.8 nM
same,Kd,"[1]; suicide, mean of 10, SEM 0.1, read-out: Kd, mean",1 nM
same,"Bmax, mean","[1]; suicide, mean of 10, SEM 7.8, P < 0.0003",86.0 fm/mg P
same,"Bmax, β1-receptors","[2]; control, n=5",37.7±9.3 fm/mg protein
same,Kd,"[2]; control, n=5",2.2 ± 0.5 nM
same,Kd,"[2]; suicide, n=5",1.7 ± 0.3 nM
same,"Bmax, β1-receptors","[2]; suicide, n=5, P<0.015",50.3±9.4 fm/mg protein
same,"Bmax, β2-receptors",[3]; control,28.0±4.0 fm/mg protein
same,Kd,[3]; control,1.1 ± 0.13 nM
same,"Bmax, β2-receptors","[3]; suicide, p=0.1",39.2±3.1 fm/mg protein
same,total Bmax,[4],50-100 fm/mg protein
same,"Bmax, β1 receptor subtype",[5],40-60 fm/mg protein
same,"Bmax, β2 receptor",[6],25-40 fm/mg protein
CC(C)NCC(O)COc1cccc2[nH]cc(I)c12 (stereo not drawn) [iodopindolol],distribution of β1 receptors,[7],predominate in the prefrontal cortical external layers and in basal ganglia
same,distribution of β2 receptors,[8],"found in internal cortical layers and predominate in hippocampus, cerebellum and white matter"
same,difference between total and nonspecific binding to brains,"[9]; 15 and 30 minutes post-injection, 250 μCi/kg i.v., propranolol 5 mg/kg i.p.",very small difference
same,"brain binding of radiolabel, propranolol pre-injected","[9]; 60 and 90 minutes, propranolol 5 mg/kg i.p.",low and uniform brain binding of radiolabel
same,distribution of binding in the brain,"[9]; 60 and 90 minutes, without propranolol","high levels in frontal cortex, caudate, and cerebellum; moderate to low levels in various hippocampal structures and thalamic nuclei; low levels in brain stem and medulla"
same,difference between iodopindolol alone and propranolol-pretreated animals,"[9]; FIG. 5, 15 minutes post injection",no apparent difference
same,distribution of radioactivity,"[9]; FIG. 6, 60 minutes post injection","relatively high levels in external cortical layers, caudate and cerebellum and relatively low levels in hippocampus"
same,brain levels of bound radiolabel,[9]; between 60 and 90 minutes,do not decline appreciably between 60 and 90 minutes
same,specific labelling of βAR in the brain,[9]; one hour after injection,specifically labels βAR
same,brain uptake,[10],hindered by the blood brain barrier
same,Kd,[11],< 1 nM
same,"affinity for serotonin receptors, 5HT1B",[12],low affinity
same,"affinity for serotonin receptors, 5HT1D",[13],low affinity
same,labelling of βAR subtype β1 in vivo,[14],"labels both βAR subtypes, β1 and β2, in vivo"
same,labelling of βAR subtype β2 in vivo,[15],"labels both βAR subtypes, β1 and β2, in vivo"
same,crossing of blood brain barrier,[16],crosses the blood brain barrier
